The values that follow come from patent publication EP0060994A1, “Bis-hydroxyethylmercapto-1,10-decane derivative, process for its preparation, and pharmaceutical compositions containing it” (LABORATORI PROPHIN S.p.A., priority 1981, dated 1982).

Data set [1] concerns aus dem Epydimalgewebe der Ratten isolierten und in vitro inkubierten Fettzellen. As to the kind of experiment: tissue or blood. As to conditions: 0.5 h. The source says: Die in der untenanliegenden Tabelle hervorgebrachten Resultate wurden auf, aus dem Epydimalgewebe der Ratten isolierten und in vitro inkubierten Fettzellen durchgeführt, wobei die Befreiung von Glyzerol als Parameter der Lypolysis in Anbetracht gezogen wurde.
Die spontane Lypolysis in Abwesenheit von Arzneimitteln wurde als Vergleichstermin in Anbetracht gezogen.
Die Hemmungsprozentualen beziehen sich auf die spontane (erste Spalte), von Epynephrin induzierte (zweite Spalte) und von Theophyllin induzierte (dritte Spalte) Lypolysis.

A further data set concerns Maus (Swissstamm). As to conditions: mouse, oral, same experimental conditions; literature value; cited from earlier work.
The next data set relates to Lypolysis. As to conditions: in the presence of zyklischem AMP-dibutyrat; cited from earlier work.
The mark [2] stands for this setting: read-out: Lypolysis +Epynephrin 10^-6M.
Where [3] appears, read: read-out: Lypolysis +Theophyllin 3x10^-4M.

Read-outs that look alike come from different tables or passages of the source.

With `O=C(OCCSCCCCCCCCCCSCCOC(=O)OCc1cccnc1)OCc1cccnc1` [TN, Gemischtes Doppelcarbonat des Bis-hydroxyethylmercapto-1,10-decans und 3-Pyridylmethanols], the inhibition at 100 µM came to 34% in data set [1] (setting [2]), 30% in data set [1] (setting [3]) and 70% in data set [1] (read-out: Lypolysis Spontane). In addition, the results for the inhibition at 1000 µM in data set [1] (setting [2]), in data set [1] (setting [3]) and in data set [1] (read-out: Lypolysis Spontane) were 58%, 69% and 84%, respectively.
With `CNCC(O)c1ccc(O)c(O)c1` (stereo not drawn) [Epynephrin], the fold induction at 1 µM in data set [1] (read-out: von Epynephrin in Vergleich mit der spontanen Lypolysis induzierte Zunahme) stood at 12.8.
With `OCc1cccnc1` [N, Nicotinol], the inhibition at 2000 µM came out at 38% in data set [1] (setting [2]), 60% in data set [1] (setting [3]) and 89% in data set [1] (read-out: Lypolysis Spontane). Also, the inhibition at 200 µM was 37% in data set [1] (setting [3]) and 60% in data set [1] (read-out: Lypolysis Spontane).
For the molecule `Cn1c(=O)c2[nH]cnc2n(C)c1=O` [Theophyllin], the fold induction at 300 µM in data set [1] (read-out: von Theophyllin in Vergleich mit der spontanen Lypolysis induzierte Zunahme) was determined as 7.6.
`OCCSCCCCCCCCCCSCCO` [T, Thiadenol]: the inhibition at 1000 µM in data set [1] (setting [2]) stood at 33%. Further, in data set [1] (setting [3]), the inhibition at 100 µM turned out to be 34% and the inhibition at 1000 µM came to 47%. The LD50-Wert in the data set on Maus (Swissstamm) is 10000 mg/kg. For the same molecule, in the data set on Lypolysis, the “in vitro lypolysishemmende Wirkung” value is on record as “lypolysishemmende Wirkung”.
